Tests used:
Assay in all cases: relative viability (nuclei count vs DMSO), 5 days (fraction); higher = more cells survive
NCI-H358 = tested on: NCI-H358
Procedure, shortened: (§1)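 Lung cancer cell lines were pin-tool dosed in 1536-well plates on the day after seeding, with either a lone drug or a fixed anchor-drug dose plus five library-drug doses (not always all listed) in √10 steps. Nuclei were counted on 4× images after 5 days. Relative viability is the ratio of treated-well to vehicle-well nuclei counts, with each value a median of duplicate plates.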

NCI-H441 = tested on: NCI-H441
Procedure, shortened: as §1

NCI-H460 = tested on: NCI-H460
Procedure, shortened: as §1

NCI-H520 = tested on: NCI-H520
Procedure, shortened: as §1

NCI-H522 = tested on: NCI-H522
Procedure, shortened: as §1

NCI-H596 = tested on: NCI-H596
Procedure, shortened: as §1

NCI-H647 = tested on: NCI-H647
Procedure, shortened: as §1

NCI-H661 = tested on: NCI-H661
Procedure, shortened: as §1

NCI-H727 = tested on: NCI-H727
Procedure, shortened: as §1

NCI-H838 = tested on: NCI-H838
Procedure, shortened: as §1

PC-3 [JPC-3] = tested on: PC-3 [JPC-3]
Procedure, shortened: as §1

SK-LU-1 = tested on: SK-LU-1
Procedure, shortened: as §1

## CCNC(=O)c1noc(-c2cc(C(C)C)c(O)cc2O)c1-c1ccc(CN2CCOCC2)cc1 [Luminespib] + N=C(N)NC(=N)NCCc1ccccc1 [Phenformin] (partner 250 µM)
NCI-H358; first compound 0.06325 µM
  relative viability: 0.0546
NCI-H358; first compound 0.2 µM
  relative viability: 0.0585
NCI-H441; first compound 0.002 µM
  relative viability: 0.841
NCI-H441; first compound 0.006325 µM
  relative viability: 0.689
NCI-H441; first compound 0.02 µM
  relative viability: 0.732
NCI-H441; first compound 0.06325 µM
  relative viability: 0.216
NCI-H441; first compound 0.2 µM
  relative viability: 0.135
NCI-H460; first compound 0.002 µM
  relative viability: 0.616
NCI-H460; first compound 0.006325 µM
  relative viability: 0.458
NCI-H460; first compound 0.02 µM
  relative viability: 0.0329
NCI-H460; first compound 0.06325 µM
  relative viability: 0.0168
NCI-H460; first compound 0.2 µM
  relative viability: 0.0232
NCI-H520; first compound 0.002 µM
  relative viability: 0.634
NCI-H520; first compound 0.006325 µM
  relative viability: 0.537
NCI-H520; first compound 0.02 µM
  relative viability: 0.248
NCI-H520; first compound 0.06325 µM
  relative viability: 0.138
NCI-H520; first compound 0.2 µM
  relative viability: 0.191
NCI-H522; first compound 0.002 µM
  relative viability: 0.707
NCI-H522; first compound 0.006325 µM
  relative viability: 0.657
NCI-H522; first compound 0.02 µM
  relative viability: 0.601
NCI-H522; first compound 0.06325 µM
  relative viability: 0.546
NCI-H522; first compound 0.2 µM
  relative viability: 0.362
NCI-H596; first compound 0.002 µM
  relative viability: 0.648
NCI-H596; first compound 0.006325 µM
  relative viability: 0.621
NCI-H596; first compound 0.02 µM
  relative viability: 0.588
NCI-H596; first compound 0.06325 µM
  relative viability: 0.61
NCI-H596; first compound 0.2 µM
  relative viability: 0.58
NCI-H647; first compound 0.002 µM
  relative viability: 0.396
NCI-H647; first compound 0.006325 µM
  relative viability: 0.504
NCI-H647; first compound 0.02 µM
  relative viability: 0.429
NCI-H647; first compound 0.06325 µM
  relative viability: 0.0796
NCI-H647; first compound 0.2 µM
  relative viability: 0.0823
NCI-H661; first compound 0.002 µM
  relative viability: 0.262
NCI-H661; first compound 0.006325 µM
  relative viability: 0.279
NCI-H661; first compound 0.02 µM
  relative viability: 0.27
NCI-H661; first compound 0.06325 µM
  relative viability: 0.241
NCI-H661; first compound 0.2 µM
  relative viability: 0.191
NCI-H727; first compound 0.002 µM
  relative viability: 0.564
NCI-H727; first compound 0.006325 µM
  relative viability: 0.398
NCI-H727; first compound 0.02 µM
  relative viability: 0.361
NCI-H727; first compound 0.06325 µM
  relative viability: 0.318
NCI-H727; first compound 0.2 µM
  relative viability: 0.175
NCI-H838; first compound 0.002 µM
  relative viability: 0.664
NCI-H838; first compound 0.006325 µM
  relative viability: 0.55
NCI-H838; first compound 0.02 µM
  relative viability: 0.257
NCI-H838; first compound 0.06325 µM
  relative viability: 0.107
NCI-H838; first compound 0.2 µM
  relative viability: 0.114
PC-3 [JPC-3]; first compound 0.002 µM
  relative viability: 0.463
PC-3 [JPC-3]; first compound 0.006325 µM
  relative viability: 0.457
PC-3 [JPC-3]; first compound 0.02 µM
  relative viability: 0.462
PC-3 [JPC-3]; first compound 0.06325 µM
  relative viability: 0.472
PC-3 [JPC-3]; first compound 0.2 µM
  relative viability: 0.242
SK-LU-1; first compound 0.002 µM
  relative viability: 0.53
SK-LU-1; first compound 0.006325 µM
  relative viability: 0.411
SK-LU-1; first compound 0.02 µM
  relative viability: 0.192
SK-LU-1; first compound 0.06325 µM
  relative viability: 0.0958
SK-LU-1; first compound 0.2 µM
  relative viability: 0.0878

Reference: the supplement of paper PMC10307832
